Source: patent publication US20250214977A1, “STAT6 INHIBITORS AND USES THEREOF” (Kymera Therapeutics, Inc., priority 2024, published 2025)

What follows are compounds tested on Phosphorylation of STAT6 in human A549 cells (assay: Phosphorylated STAT6 (pSTAT6) flow cytometry assay in human A549 cells). Conditions: read-out: STAT6 IL4 pSTAT6 assay in A549 cells: Average IC50.
Assay type: cell-based
Source text: Example 3. Phosphorylated STAT6 (pSTAT6) Flow Cytometry Assay in Human A549 Cells
Phosphorylation of STAT6 in human A549 cells was quantitatively measured using flow cytometry technology.

SMILES	IC50 [nM]
CCc1cnc(N2CCN(C(=O)c3cc4c(-c5cnccc5OC)cc(C5=CCCN(C(=O)CCn6ccnn6)C5)c(F)c4[nH]3)CC2)c(OC)c1 [Example I-453]	< 100
COc1cnccc1-c1cc(C2=CCCN(C(=O)CCn3ccnn3)C2)c(F)c2[nH]c(C(=O)N3CCN(C4CC4)CC3)cc12 [Example I-605]	< 100
COc1ccccc1-c1cc(C2=CCCN(C(=O)CCn3cccn3)C2)c(F)c2[nH]c(C(=O)N3CCN(c4cc5cc[nH]c5nc4C#N)CC3)cc12 [Example I-494]	> 100000
COc1cc(F)cnc1N1CCN(C(=O)c2cc3c(-c4ccnc(N5CCOCC5)c4)cc(C4=CCCN(C(=O)CCn5ccnn5)C4)c(F)c3[nH]2)CC1 [Example I-680]	< 100
COc1ccncc1-c1cc(C2=CCCN(C(=O)CCn3ccnn3)C2)c(F)c2[nH]c(C(=O)N3CCN(c4ccccc4OC)CC3)cc12 [Example I-565]	< 100
CN(C)C(=O)c1cc2cc(C3=CCCN(C(=O)CCn4ccnn4)C3)cc(-c3cccc4c3CN(C)C4=O)c2o1 [Example I-845]	< 100
COc1cccnc1N1CCN(C(=O)c2cc3c(-c4cccnc4OC)cc(C4=CCCN(C(=O)CCn5ccnn5)C4)c(F)c3[nH]2)CC1 [Example I-410]	> 100000
COc1ccccc1-c1cc(C2=CCCN(C(=O)CCn3ccnn3)C2)c(F)c2[nH]c(C(=O)N3CCN(c4cnccc4OC)CC3)cc12 [Example I-465]	> 100000
COc1ccccc1-c1cc(C2=CCCN(C(=O)CCn3ccnn3)C2)c(F)c2[nH]c(C(=O)N3CCN(c4cc(C#N)ccc4OC)CC3)cc12 [Example I-356, 3-(4-(6-(1-(3-(1H-1,2,3-triazol-1-yl)propanoyl)-1,2,5,6-tetrahydropyridin-3-yl)-7-fluoro-4-(2-methoxyphenyl)-1H-indole-2-carbonyl)piperazin-1-yl)-4-methoxybenzonitrile]	< 100
COc1ccccc1-c1cc(C2=CCCN(C(=O)CCn3ccnn3)C2)c(F)c2[nH]c(C(=O)N3CCN(C(=O)N(C)C)CC3)cc12 [Example I-866]	< 100
COc1ccccc1-c1cc(C2=CCCN(C(=O)CCn3ccnn3)C2)c(F)c2[nH]c(C(=O)N3CCN(c4ccncc4OC)CC3)cc12 [Example I-365]	< 100
CCc1cnccc1-c1cc(C2=CCCN(C(=O)CCn3cccn3)C2)c(F)c2[nH]c(C(=O)N3CCN(c4ncc(OC)cc4OC)CC3)cc12 [Example I-684]	< 100
CCc1ccncc1-c1cc(C2=CCCN(C(=O)CCn3ccnn3)C2)c(F)c2[nH]c(C(=O)N3CCN(c4ncc(F)cc4OC)CC3)cc12 [Example I-476]	< 100
CCc1ccncc1-c1cc(C2=CCCN(C(C)=O)C2)c(F)c2[nH]c(C(=O)N3CCN(c4cc(F)cnc4OC)CC3)cc12 [Example I-699]	10000 to 100000
COc1ccccc1-c1cc(C2=CCCN(C(=O)CCn3ccnn3)C2)c(F)c2[nH]c(C(=O)N3CCN(C(C)(C)C)CC3)cc12 [Example I-773]	< 100
CCc1cc(C(F)F)ncc1-c1cc(C2=CCCN(C(=O)CCn3ccnn3)C2)c(F)c2[nH]c(C(=O)N3Cc4cnn(CC)c4C3)cc12 [Example I-767]	> 100000
COc1ncccc1-c1cc(C(=O)N2Cc3cnn(C)c3C2)cc2cc(C3=CCCN(C(=O)CCn4ccnn4)C3)n(CC3CC3)c12 [Example I-717]	10000 to 100000
COc1ccccc1-c1cc(C2=CCCN(C(=O)CCn3ccnn3)C2)c(F)c2[nH]c(C(=O)N3CCN(c4c(OC)cccc4Oc4ccccc4)CC3)cc12 [Example I-414]	100 to 1000
COc1ccccc1-c1cc(C2=CCCN(C(=O)CCn3ccnn3)C2)c(F)c2[nH]c(C(=O)N3CCN(C)CC3)cc12 [Example I-841]	< 100
CCc1ncccc1-c1cc(C(=O)N2CCN(c3ncc(F)cc3OC)CC2)cc2cc(C3=CCCN(C(=O)C(=O)O)C3)n(CC3CC3)c12 [Example I-797]	> 100000
COc1cccnc1N1CCN(C(=O)c2cc3c(-c4cccc(F)c4OC)cc(C4=CCCN(C(=O)CCn5ccnn5)C4)c(F)c3[nH]2)CC1 [Example I-399]	> 100000
CCn1ncc2c1CN(C(=O)c1cc3c(-c4ccncc4OC)cc(C4=CCCN(C(C)=O)C4)c(F)c3[nH]1)C2 [Example I-715]	10000 to 100000

Now from value to compound:

IC50 [nM]	SMILES
100 to 1000	COc1cc(F)ccc1-c1cc(C2=CCCN(C(=O)CCn3ccnn3)C2)c(F)c2[nH]c(C(=O)N3CCN(c4ccc(F)c(OC)n4)CC3)cc12 [Example I-1107]
< 100	COc1cc(F)cnc1N1CCN(C(=O)c2cc3c(-c4ccc(C(C)(C)C#N)cc4)cc(C4=CCCN(C(=O)CCn5ccnn5)C4)c(F)c3[nH]2)CC1 [Example I-1142]
< 100	COc1ccccc1-c1cc(C2=CCCN(C(=O)CCn3ccnn3)C2)c(F)c2[nH]c(C(=O)N3CCC(N(C)C4CC4)C3)cc12 (stereo not shown) [Example I-898]
< 100	COc1ccccc1-c1cc(C2=CCCN(C(=O)CCn3ccnn3)C2)cc2cc(C(=O)N(C)C)oc12 [Example I-1103]
100 to 1000	CN(C)C(=O)c1cc2cc(C3=CCCN(C(=O)CCn4ccnn4)C3)cc(NC3CCCC3)c2o1 [Example I-874]
1000 to 10000	COc1ccccc1-c1cc(C2=CCCN(C(=O)CCn3ccnn3)C2)c(F)c2[nH]c(C(=O)N3CCN(c4ccc5c(c4)Nc4ccccc4CC5)CC3)cc12 [Example I-947]
< 100	COc1cccnc1N1CCN(C(=O)c2cc3c(C4=CCN(C)CC4C)cc(C4=CCCN(C(=O)CCn5ccnn5)C4)c(F)c3[nH]2)CC1 (stereo not shown) [Example I-1150]
100 to 1000	COc1ccc(C)cc1-c1cc(C2=CCCN(C(=O)C3Cc4ccccc4CN3C=O)C2)cc2cc(C(=O)N(C)C)oc12 (stereo not shown) [Example I-1197]
100 to 1000	CCc1ccncc1-c1cc(C2=CCCN(C(=O)CCC(=O)O)C2)c(F)c2[nH]c(C(=O)N3CCN(c4ncc(F)cc4OC)CC3)cc12 [Example I-1170]
< 100	COc1cc(F)cnc1N1CCN(C(=O)c2cc3c(-c4cccc5cnccc45)cc(C4=CCCN(C(=O)CCn5ccnn5)C4)c(F)c3[nH]2)CC1 [Example I-1119]
100 to 1000	CC(=O)N1CCC=C(c2cc(-c3ccc4n[nH]c(C)c4c3)c3cc(C(=O)N(C)C)[nH]c3c2F)C1 [Example I-883]
< 100	COc1ccccc1-c1cc(C2=CCCN(C(=O)CCn3ccnn3)C2)c(F)c2[nH]c(C(=O)N3CCC(c4cccnc4C)CC3)cc12 [Example I-1002]
< 100	C#CCOC1CCN(C(=O)c2cc3c(-c4ccccc4OC)cc(C4=CCCN(C(=O)CCn5ccnn5)C4)c(F)c3[nH]2)CC1 [Example I-1001]
< 100	COc1ccccc1-c1cc(C2=CCCN(C(=O)CCn3ccnn3)C2)c(F)c2[nH]c(C(=O)N3CCN(c4cc(C#N)ccn4)CC3)cc12 [Example I-875]
100 to 1000	CN(C)C(=O)c1cc2ccc(C3CCCN(C(=O)CCn4ccnn4)C3)cc2[nH]1 (stereo not shown) [Example I-1188]
< 100	COc1ccccc1-c1cc(C2=CCCN(C(=O)CCn3ccnn3)C2)c(F)c2[nH]c(C(=O)N3CCN(c4cnn(C)c4C#N)CC3)cc12 [Example I-1005]

Each compound was assayed on Phosphorylation of STAT6 in human PBMC (CD19+ B cells) (assay: Phosphorylated STAT6 (pSTAT6) flow cytometry assay in human PBMC, IL-4 stimulated). Conditions: compound 1 hour, 1 ng/ml IL-4 for 15 minutes, read-out: STAT6 IL4 pSTAT6 assay in PBMC: Average IC50.
Assay type: cell-based
Method: Example 2. Phosphorylated STAT6 (pSTAT6) Flow Cytometry Assay in Human PBMC
Phosphorylation of STAT6 in human PBMC was quantitatively measured using flow cytometry technology. Human PBMC were seeded in 96-well plates with a density of 0.3 to 0.5 million cells per well in 100 μl fresh media. Compounds were then added to the assay plates with a final top concentration of up to 30 μM in a 1:3 dilution series with total of 9 doses. The assay plates were incubated for 1 hour at 37° C. under 5% CO2. The cells were then stimulated with 1 ng/ml of IL-4 (R&D Systems, Cat #6507-IL) for 15 minutes, followed by fixation for 30 minutes at 4° C. Cells were spun down at 350 g for 5 minutes. The supernatant was removed and cells were washed once with FACS buffer. Cells were permeabilized with 90% MeOH/H2O for 30 minutes at 4° C., followed by one wash with FACS buffer. Non-specific binding were blocked with human Fc for 1 hour at 4 C, followed by one wash with FACS buffer. AF488 conjugated pSTAT6 antibody (BD Biosciences, Cat #612600, 1:100 dilution) and PE conjugated CD19 antibody (BD Biosciences, Cat #341103, 1:50 dilution) diluted in 100 μl FACS buffer was added to each well with overnight incubation at 4° C. Cells were then washed once with FACS buffer and resuspended in 200 μl of FACS buffer for flow cytometry to quantify pSTAT6 in CD19+ B cells. The data was analyzed by GraphPad Prism and the dose dependent pSTAT6 inhibition was fit using the four-parameter inhibitor vs. response nonlinear regression.

SMILES	IC50 [nM]
CN(C)C(=O)c1cc2cc(C3=CCCN(C(=O)Cc4ccncn4)C3)ccc2o1 [Example I-270]	> 100000
CNc1ccc(-c2cc(C3=CCCN(C(=O)CCn4ccnn4)C3)cc3[nH]c(C(=O)N(C)C)cc23)c(Cl)c1 [Example I-118]	< 100
CN(C)C(=O)c1cc2cc(C3=CCCN(C(=O)CCc4ccnnc4)C3)ccc2o1 [Example I-225]	> 100000
CN(C)C(=O)c1cc2ccc(C3=CCCN(C(=O)C4CS(=O)(=O)C4)C3)cc2[nH]1 [Example I-163]	> 100000
CN(C)C(=O)c1cc2ccc(C3=CCCN(C(=O)C4NCCc5ccccc54)C3)cc2[nH]1 (stereo not shown) [Example I-60]	> 100000
CC(=O)N1CCC(c2cc(C3=CCCN(C(=O)CCn4ccnn4)C3)cc3cc(C(=O)N(C)C)oc23)CC1 [Example I-190]	10000 to 100000
COC(=O)c1ccc(CCC(=O)N2CCC=C(c3ccc4cc(C(=O)N(C)C)[nH]c4c3)C2)[nH]1 [Example I-68]	10000 to 100000
CN(C)C(=O)c1cc2ccc(C3=CCCN(C(=O)CCn4nncc4CO)C3)cc2[nH]1 [Example I-13]	100 to 1000
CN(C)C(=O)c1cc2cc(C3=CCCN(C(=O)CCn4ccnn4)C3)ncc2[nH]1 [Example I-224]	10000 to 100000
CN(C)C(=O)c1cc2cc(C3=CCCN(C(=O)CCn4ccnn4)C3)cnc2s1 [Example I-244]	> 100000
Cc1nc(CC(=O)N2CCC=C(c3ccc4cc(C(=O)N(C)C)[nH]c4c3)C2)no1 [Example I-41]	10000 to 100000
CN(C)C(=O)c1cc2ccc(C3=CCCN(C(=O)CN4C(=O)COc5ccccc54)C3)cc2[nH]1 [Example I-79]	10000 to 100000
O=C(CCn1ccnn1)N1CCC=C(c2ccc3oc(C(=O)N4CCCCC4)cc3c2)C1 [Example I-128]	10000 to 100000
CN(C)C(=O)c1cc2ccc(C3=CCCN(C(=O)CCc4ccon4)C3)cc2[nH]1 [Example I-20]	> 100000
